Laboratory results from US20250129021A1, “SMALL MOLECULE PROTEIN SYNTHESIS MODULATORS” (Interdict Bio, Inc., priority 2023, published 2025).

How the values were obtained:
Format in all cases: biochemical
Conditions in all cases: HeLa S3 lysate, sfGFP/mCherry ratio, 2 hrs at 30° C.
MCL-1 = assay: In vitro transcription-translation (IVTT) assay, MCL-1 reporter
Outline: (§1)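 Reporter: mCherry, P2A, then 3×FLAG-target peptide-sfGFP fusion, IRES-initiated; HeLa S3 lysate IVTT; cpd dilutions 30 μM−0.1 μM half-log in 100% DMSO (dilution-plate conc); DNA added last; 2 h, 30° C; PBS quench.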

CCND1 = assay: In vitro transcription-translation (IVTT) assay, CCND1 reporter
Outline: as §1

MYC = assay: In vitro transcription-translation (IVTT) assay, MYC reporter
Outline: as §1

BCL-2 = assay: In vitro transcription-translation (IVTT) assay, BCL-2 reporter
Description: All reporter constructs have been cloned into the pT7CFE1-CHis plasmid (ThermoFisher #88860) using Gibson assembly procedures (NEB #E2611L). The parental pT7CFE1-CHis plasmid contains an EMCV IRES at the 5′UTR for translation initiation, a multiple-cloning site (MCS) for gene insertion, an optional C-terminal His-epitope tag, and polyA sequence in the 3′UTR to regulate mRNA stability. All reporters are designed to be inserted at the MCS to include a red fluorescent protein (mCherry), P2A self-cleaving peptide which releases the preceding mCherry protein product, and a fusion open reading frame containing a 3×FLAG epitope, a peptide sequence of interest (TEST), and green fluorescent protein (sfGFP).
Construct Plasmid Preparation: All plasmids are isolated from MACH1 cells (ThermoFisher) grown overnight in ampicillin-containing luria broth, and purified using ZymoPure Express Plasmid Midiprep Kit (Zymo Research). Constructs are sequenced verified and diluted to a working concentration of 110 ng/μL.
HeLa S3 Lysate Preparation: HeLa S3 cell pellets are acquired from Ipracell/Ipratech (Belgium) and shipped as 4 mL frozen cell pellets on dry ice for storage at −80° C. until use. The procedure for lysate preparation is as follows. Prepare 1× Lysis Buffer, cold and stored on ice:
Each preparation takes 8 cell pellets (4 ml packed volume each, approximately 1.0×10^9 cells per pellet). Thaw cell pellets from −80° C. on ice for 90 mins. Lay pellets horizontally on top of the ice and rotate every 30 mins to ensure even thawing. Once thawed, add 4 mL of cold lysis buffer to each pellet, and using a serological pipet, gently pipet up and down to break up clumps. Incubate resuspended cells in ice for an additional 30 mins (plunged into ice). During 30 min incubation, rinse and RNase-zap (Ambion) glass dounces (use loose pestle “A”), gently dry and place on ice until needed. Prepare RNase-free Eppendorf tubes for spinning and for batch storage. Add batch labels to 1.5-1.7 mL RNase-free microcentrifuge tubes (labeling scheme below). Each batch will have an extra 1.5-1.7 mL RNase-free microcentrifuge tube for 40 μL of lysate, label the top of this tube (labeling scheme below). After 30 min incubation, transfer all 8 mL of cell pellet to dounce. Cell lysis is complete after douncing 100 times. Aliquot cell lysis into 1.5-1.7 mL temporary-microcentrifuge tubes. Place tubes in centrifuge with “fins” out, and spin at 1,200×g for 5 mins. After the first spin use a 1 mL pipet to resuspend each tube and repeat spin. This acts as an additional lysis step, is more vigorous and increases lysate yield. During second spin get liquid N2 and a fresh conical tube on ice. After spin is complete, transfer supernatant (lysate) from microcentrifuge tubes into the 50 mL conical tube and keep on ice. Repeat steps 10-14 for all other cell pellets until completed. Once all cell lysate has been transferred to the 50 mL conical tube pipet to mix so the solution is homogenous. Transfer 1 mL of lysate into batch-labeled microcentrifuge tubes and flash freeze in liquid nitrogen. Be sure to pipet up and down to mix throughout transfer step. Place all tubes in the […] for long-term storage.
In vitro transcription-translation assay setup: Each assay includes a master mix containing lysate and shared components, a 96-well plate containing compound titrations for testing, a 96-well DNA plate with reporter constructs to be tested, 96-well skirted PCR plates, and 96-well flat-bottom, black, fluorescent assay plates. […]

IC50 (MCL-1) [µM] | IC50 (CCND1) [µM] | IC50 (MYC) [µM] | IC50 (BCL-2) [µM] | SMILES
< 10 | < 10 | < 10 | 10 to 20 | COc1ccc(C[C@H]2NC[C@H](O)[C@H]2OC(=O)NNC(=O)c2ccccc2)cc1 [V187812, N′-({[(2R,3S,4S)-4-hydroxy-2-[(4-methoxyphenyl)methyl]pyrrolidin-3-yl]oxy}carbonyl)benzohydrazide]
> 30 | > 30 | > 30 | > 30 | COc1ccc(C[C@H]2NC[C@H](O)[C@H]2OC(=O)NCC(=O)O)cc1 [V188016]
> 30 | > 30 | 20 to 30 | > 30 | COc1ccc(C[C@H]2NC[C@H](O)[C@H]2OC(=O)NCCNc2nc(N)nc3nc[nH]c23)cc1 [Cmpd V188056]
10 to 20 | 20 to 30 | 20 to 30 | 20 to 30 | COc1ccc(C[C@H]2NC[C@H](O)[C@H]2OC(=O)NCC(=O)NCC(N)=O)cc1 [V188021, (2R,3S,4S)-4-hydroxy-2-[(4-methoxyphenyl)methyl]pyrrolidin-3-yl N-[(carbamoylmethylcarbamoyl)methyl]carbamate]
< 10 | – | < 10 | 10 to 20 | COc1ccc(C[C@H]2NC[C@H](O)[C@H]2OC(=O)NCc2ccncc2Cl)cc1 [V188052, (2R,3S,4S)-4-hydroxy-2-[(4-methoxyphenyl)methyl]pyrrolidin-3-yl N-[(3-chloropyridin-4-yl)methyl]carbamate]
10 to 20 | 10 to 20 | – | > 30 | COc1ccc(C[C@H]2NC[C@H](O)[C@H]2OC(=O)NCCNC(=O)[C@@H]2CCCN2)cc1 [V188015, (2R,3S,4S)-4-hydroxy-2-[(4-methoxyphenyl)methyl]pyrrolidin-3-yl N-{2-[(2S)-pyrrolidin-2-ylformamido]ethyl}carbamate]
> 30 | > 30 | – | > 30 | COc1ccc(C[C@H]2NC[C@H](O)[C@H]2OC(=O)NCc2n[nH]nc2COCc2ccccc2)cc1 [Cmpd V187805]
< 10 | < 10 | – | < 10 | COc1ccc(C[C@H]2NC[C@H](O)[C@H]2OC(=O)NCCc2n[nH]cc2C#N)cc1 [Cmpd V188126]
> 30 | > 30 | > 30 | > 30 | COc1ccc(C[C@H]2NC[C@H](O)[C@H]2OC(=O)NCc2cccc(-c3ccccc3)c2)cc1 [V187982, (2R,3S,4S)-4-hydroxy-2-[(4-methoxyphenyl)methyl]pyrrolidin-3-yl N-{[1,1′-biphenyl]-3-ylmethyl}carbamate]
> 30 | – | > 30 | > 30 | COc1ccc(C[C@H]2NC[C@H](O)[C@H]2OC(=O)NC[C@@H]2CCCNC2)cc1 [V187929, (2R,3S,4S)-4-hydroxy-2-[(4-methoxyphenyl)methyl]pyrrolidin-3-yl N-[(3R)-piperidin-3-ylmethyl]carbamate]
> 30 | – | > 30 | > 30 | COc1ccc(C[C@H]2NC[C@H](O)[C@H]2OC(=O)NCCc2ccc(-c3ccccc3)cc2)cc1 [V187979]
10 to 20 | > 30 | 10 to 20 | > 30 | COc1ccc(C[C@H]2NC[C@H](O)[C@H]2OC(=O)NCc2ccc(I)cc2)cc1 [V187928, (2R,3S,4S)-4-hydroxy-2-[(4-methoxyphenyl)methyl]pyrrolidin-3-yl N-[(4-iodophenyl)methyl]carbamate]
< 10 | > 30 | 10 to 20 | 20 to 30 | COc1ccc(C[C@H]2NC[C@H](O)[C@H]2OC(=O)NCC(=O)N[C@@H](C)C(N)=O)cc1 [Cmpd V188022]
< 10 | 10 to 20 | < 10 | 20 to 30 | COc1ccc(C[C@H]2NC[C@H](O)[C@H]2OC(=O)NCCc2ccn(C)n2)cc1 [V187847, (2R,3S,4S)-4-hydroxy-2-[(4-methoxyphenyl)methyl]pyrrolidin-3-yl N-[2-(1-methylpyrazol-3-yl)ethyl]carbamate]

Second part, the compound before the results:

SMILES | IC50 (MCL-1) [µM] | IC50 (CCND1) [µM] | IC50 (MYC) [µM] | IC50 (BCL-2) [µM]
COc1ccc(C[C@H]2NC[C@H](O)[C@H]2OC(=O)NCC2(F)CNC2)cc1 [V187877, (2R,3S,4S)-4-hydroxy-2-[(4-methoxyphenyl)methyl]pyrrolidin-3-yl N-[(3-fluoroazetidine-3-yl)methyl]carbamate] | > 30 | > 30 | > 30 | > 30
COc1ccc(C[C@H]2NC[C@H](O)[C@H]2OC(=O)NCc2ccc(-c3ccccc3)cc2)cc1 [V187977, (2R,3S,4S)-4-hydroxy-2-[(4-methoxyphenyl)methyl]pyrrolidin-3-yl N-{[1,1′-biphenyl]-4-ylmethyl}carbamate] | > 30 | > 30 | > 30 | > 30
COc1ccc(C[C@H]2NC[C@H](O)[C@H]2OC(=O)NCc2cccnn2)cc1 [V187916, (2R,3S,4S)-4-hydroxy-2-[(4-methoxyphenyl)methyl]pyrrolidin-3-yl N-(pyridazin-3-ylmethyl)carbamate] | < 10 | < 10 | < 10 | < 10
COc1ccc(C[C@H]2NC[C@H](O)[C@H]2OC(=O)NC[C@H]2CCCNC2)cc1 [V187930, (2R,3S,4S)-4-hydroxy-2-[(4-methoxyphenyl)methyl]pyrrolidin-3-yl N-[(3S)-piperidin-3-ylmethyl]carbamate] | 20 to 30 | 20 to 30 | 20 to 30 | > 30
COc1ccc(C[C@H]2NC[C@H](O)[C@H]2OC(=O)NCCNc2ncnc3nc[nH]c23)cc1 [V188060, (2R,3S,4S)-4-hydroxy-2-[(4-methoxyphenyl)methyl]pyrrolidin-3-yl N-[2-(7H-purin-6-ylamino)ethyl]carbamate] | > 30 | 20 to 30 | 10 to 20 | > 30
COc1ccc(C[C@H]2NC[C@H](O)[C@H]2OC(=O)NCc2nc(Cl)c(Cl)[nH]2)cc1 [V187824, (2R,3S,4S)-4-hydroxy-2-[(4-methoxyphenyl)methyl]pyrrolidin-3-yl N-[(4,5-dichloro-1H-imidazol-2-yl)methyl]carbamate] | > 30 | > 30 | > 30 | > 30
COc1ccc(C[C@H]2NC[C@H](O)[C@H]2OC(=O)NCc2cc(Cl)[nH]n2)cc1 [Cmpd V187860] | < 10 | < 10 | < 10 | < 10
COc1ccc(C[C@H]2NC[C@H](O)[C@H]2OC(=O)NCCNC(=O)C2(N)CC2)cc1 [V187919, (2R,3S,4S)-4-hydroxy-2-[(4-methoxyphenyl)methyl]pyrrolidin-3-yl N-{2-[(1-aminocyclopropyl)formamido]ethyl}carbamate] | – | > 30 | 20 to 30 | > 30
COc1ccc(C[C@H]2NC[C@H](O)[C@H]2OC(=O)NCCc2cc(C)on2)cc1 [V187719, (2R,3S,4S)-4-hydroxy-2-[(4-methoxyphenyl)methyl]pyrrolidin-3-yl N-[2-(5-methyl-1,2-oxazol-3-yl)ethyl]carbamate] | < 10 | < 10 | < 10 | 10 to 20
COc1ccc(C[C@H]2NC[C@H](O)[C@H]2OC(=O)NCc2ccnc(OC)c2)cc1 [V188051, (2R,3S,4S)-4-hydroxy-2-[(4-methoxyphenyl)methyl]pyrrolidin-3-yl N-[(2-methoxypyridin-4-yl)methyl]carbamate] | < 10 | < 10 | < 10 | < 10
